Columns and labels:
[1] = system: HL-60 cells; assay: Combination with doxorubicin, HL-60 cell viability; assay type: cell-based, human; details: for effects of doxorubicin in combination: HL-60 cells, combination with doxorubicin; for viability of cancer cells in combination with doxorubicin: in conjunction with doxorubicin
Procedure: Although o-F- and o-Cl-amidine show some efficacy for killing cancer derived cells, the overall effects are modest. In light of such results, these inhibitors were tested in a combination with doxorubicin, a known chemotherapeutic that is used for the treatment of numerous cancers, often as part of a combination therapy. In accordance with the present disclosure, the additive effects of doxorubicin was tested with varying concentrations of both o-F- and o-Cl-amidine on HL-60 cell viability.
HL-60 and MCF-7 cells were grown to confluence (1×10^6 cells/mL) in the appropriate media. 50 μL of the MCF-7 cells were plated into each well of a 96 well plate with 40 μL of DMEM. Cells were allowed to adhere to the plate for 15 h at 37° C. and 5% CO2. For the HL-60 cells, 90 μL of the cells were added to each well of a 96 well plate. o-F-amidine, o-Cl-amidine, doxorubicin, or ATRA (10 μL, 100 nM to 100 μM) were added to the plates and allowed to incubate with the cells for 24 h. Cell viability was determined using the CellTiter 96 Non-radioactive Cell Proliferation Assay (Promega). Cell viability was quantified as the percentage of control absorbance. Each condition was performed in triplicate. The use of 1% triton served as a 100% killing control. When possible, EC50 values were determined by fitting the dose response data to equation 2 using GraFit (version 5.0.11)^33, Fractional Activity=1/(1+([1]/EC50) (eq 2) where [I] is the concentration of inhibitor (e.g., doxorubicin) and EC50 is the concentration of inhibitor that yields half-maximal cell survival. Western Blotting.

[2] = system: HL-60 cells; assay: Cytotoxicity / cell viability (CellTiter 96); assay type: cell-based, human; details: 24 h
Description: To further evaluate the […] effects of these compounds, their ability to inhibit the growth of HL60 cells, a leukemic cell line, was characterized. […] Such finding prompted further investigation into this phenomenon and led to the discovery that for the HL-60 cell line, the cells that remained viable were actually being differentiated into non-cancerous granulocytes. Evidence of this differentiation includes the increased expression of PAD4 (FIG. 6).
HL-60 human promyelocytic leukemia cells were obtained from the ATCC (Manassas, Va.). The cells were cultured in RPMI 1640 media supplemented with 10% FBS and 1% Pencillin-Streptomycin, in a 5% CO2 incubator at 37° C. MCF-7 cells were cultured in DMEM media supplemented with 10% FBS and 1% Penicillin-Streptomycin, in a 5% CO2 incubator at 37° C.
HL-60 and MCF-7 cells were grown to confluence (1×10^6 cells/mL) in the appropriate media. […] Cell viability was determined using the CellTiter 96 Non-radioactive Cell Proliferation Assay (Promega). Cell viability was quantified as the percentage of control absorbance. […] When possible, EC50 values were determined by fitting the dose response data to equation 2 using GraFit (version 5.0.11)^33, Fractional Activity=1/(1+([1]/EC50) (eq 2) where [I] is the concentration of inhibitor (e.g., doxorubicin) and EC50 is the concentration of inhibitor that yields half-maximal cell survival. Western Blotting.

## N=C(CCl)NCCC[C@H](NC(=O)c1ccccc1C(=O)O)C(N)=O [o-Cl-amidine, N-α-(2-carboxyl)benzoyl-N^5-(2-chloro-1-iminoethyl)-L-ornithine amide]
[1]
  effects of doxorubicin in combination: potentiated
  viability of cancer cells in combination with doxorubicin: reduced to levels that are undetectable above the background signal
[2]
  cell viability in HL-60 cells: reduce cell viability

## N=C(CF)NCCC[C@H](NC(=O)c1ccccc1C(=O)O)C(N)=O [o-F-amidine, N-α-(2-carboxyl)benzoyl-N^5-(2-fluoro-1-iminoethyl)-L-ornithine amide]
[1]
  effects of doxorubicin in combination: potentiated
  viability of cancer cells in combination with doxorubicin: reduced to levels that are undetectable above the background signal
[2]
  cell viability in HL-60 cells: reduce cell viability

From patent publication US8921595B2, “Protein Arginine Deiminase inhibitors as novel therapeutics for rheumatoid arthritis and cancer” (University of South Carolina, priority 2009, dated 2014)
